Assay results taken from US10973912B2, “Treatment for myopathy” (Children's Medical Center Corporation, priority 2015, dated 2021).

System: ryr1b skeletal muscles
Assay: Tetanic force per cross-sectional area in larvae at 5 dpf
Type: in vivo, zebrafish (Danio rerio)
Experimental: Tetanic forces were measured following stimulation with 9 biphasic, 200 μs square-wave pulses at 300 Hz (WT-DMSO: 45.6±4.2 kPa, n=5; WT-NIF: 52.8±4.1 kPa, n=5; ryr1b-DMSO: 11.4±1.3 kPa, n=7; ryr1b-NIF: 25.4±4.0 kPa, n=7). Significance was determined by a one-way ANOVA (F=29.61, P<0.0001), followed by pairwise Tukey's HSD post hoc tests. […] Non-linear regression data of curves were not statistically different, as determined by an extra sum-of-squares F test (P=1.0).
Ryr1b mutants display weaker muscle contractions than wild-type clutchmates as early as 2 dpf^30. To investigate whether […] affects contractile strength in zebrafish, ryr1b mutants and unaffected controls were treated with the compound for several days. At 5 dpf, electrophysiological studies were performed with the help of Dr. Jeffrey Widrick.

Question: With `O=C(N/N=C/c1ccc([N+](=O)[O-])o1)c1ccc(O)cc1` [Nifuroxazide] as the compound, how does the “tetanic forces in treated mutants” value read?
Answer: restored to wild-type levels

Question: What about the “tetanic force per cross-sectional area, ryr1b mutants” value (ryr1b, n=7, 9 biphasic 200 μs pulses at 300 Hz, ryr1b-DMSO 11.4±1.3, WT-DMSO 45.6±4.2) of the same compound?
Answer: 25.4±4.0 kPa
